# Reference: patent US20170354721A1, “WOUND HEALING COMPOUND” (priority 2016, published 2017)
# Columns and labels:
# [1] = tested on: all ranges of bacterial infection; conditions: in water or saline; cited from earlier work
# [2] = tested on: ancef sensitive organisms; experiment: Minimum bactericidal concentration (MBC) of ancef; format: cell-based
# Experimental: In an operating room setting, the vancomycin is reconstituted at room temperature (˜25° C.). […] To insure the Minimal Inhibitory Concentration (MIC) for vancomycin is exceeded, the total amount of vancomycin added to the mixture ranges from 1 mg to 5000 mg with the preferred amount being 500 mg for a 10 ml syringe, 750 mg for a 15 ml syringe, and 1000 for a 20 ml syringe. People having skill in the art will recognize that the concentrations of vancomycin can be adjusted for different sized syringes. The reconstituted vancomycin is added to the thrombin-flowable agent mixture to form a wound healing compound (“compound”). The compound is applied directly to the target wound. The Minimum Inhibitory Concentration (MIC) is defined as the lowest concentration of antimicrobial that will inhibit the visible growth of a microorganism after an overnight incubation. Related to this is the minimum bactericidal concentration (MBC), which is the lowest concentration of antimicrobial agent that will prevent the growth of an organism after subculture on to antibiotic free media.
# Depending on the infection agent, other antibiotics may be added to the mixture to form the wound healing compound. In the lab, ancef sensitive organisms are inhibited at an MIC ranging from 1-4 mcg/ml. However, ancef is bactericidal a four times the MIC. […]
# [3] = tested on: ancef sensitive organisms; conditions: in the lab; cited from earlier work
SMILES,concentration at which most effective if all ranges of bacterial infection are to be inhibited [1] [µg/mL],"preferred concentration (the MBC), bactericidal at four times the MIC [2]",MIC [3] [µg/mL]
"CN[C@H](CC(C)C)C(=O)N[C@H]1C(=O)N[C@@H](CC(N)=O)C(=O)N[C@H]2C(=O)N[C@H]3C(=O)N[C@H](C(=O)N[C@H](C(=O)O)c4cc(O)cc(O)c4-c4cc3ccc4O)[C@H](O)c3ccc(c(Cl)c3)Oc3cc2cc(c3O[C@@H]2O[C@H](CO)[C@@H](O)[C@H](O)[C@H]2O[C@H]2C[C@](C)(N)[C@H](O)[C@H](C)O2)Oc2ccc(cc2Cl)[C@H]1O [Vancomycin, vancomycin]",≥ 16,–,–
Cc1nnc(SCC2=C(C(=O)O)N3C(=O)[C@@H](NC(=O)Cn4cnnn4)[C@H]3SC2)s1 [ancef],–,at least 16 mcg/ml,1 to 4
